Test results from US9555049B2, “Arene ruthenium (II) derivatives containing iminophosphorane ligands and their use in cancer therapy” (Research Foundation of the City University of New York, priority 2014, dated 2017).

Key:
[1] = system: triple negative breast MDA-MB-231; test: MTT toxicity assay, MDA-MB-231; conditions: read-out: IC50 MDA-MB-231, 24 h incubation, mean ± SD (n = 4)
Experimental: Cytotoxic activity of the compounds was determined in some human cancer cell lines: leukemia Jurkat-T, lung A549, prostate DU-145, pancreas MiaPaca2, and triple negative breast MDA-MB-231, in comparison to cisplatin.
(§1) A549 (lung carcinoma), MiaPaca2 (pancreatic carcinoma), MDA-MB-231 (Triple negative breast carcinoma) and 293T (non-tumoral embryonic kidney cells) were cultured in DMEM medium supplemented with 10% FCS, L-glutamine and penicillin/streptomycin. Media for A549 cells were also supplemented with 2.2 g/l Na2CO3, 100 μg/ml pyruvate and 5 ml non-essential amino acids (Invitrogen). All these media will be referred as ‘complete medium’ hereinafter. Cell cultures were maintained in a humidified atmosphere of 95% air/5% CO2 at 37° C.
(§2) For toxicity assays cells (5×10^4 for Jurkat cells and 10^4 for adherent cell lines) were seeded in flat-bottom 96-well plates (100 μl/well) in complete medium. Adherent cells were allowed to attach for 24 h prior to addition of cisplatin or tested compounds. Compounds were added at different concentrations in triplicate. Cells were incubated with cisplatin or compounds for 24 h and then cell proliferation was determined by a modification of the MTT-reduction method. […] Finally, formazan crystal was dissolved by adding 100 μl/well ^iPrOH (0.05 M HCl) and gently shaking. The optical density was measured at 570 nm using a 96-well multiscanner autoreader (ELISA). In some experiments total cell number and cell viability were determined by the Trypan-blue exclusion test.

plasmid pBR322 DNA = test: Plasmid (pBR322) DNA electrophoresis (mobility shift assay); assay type: binding; conditions: 37° C., twenty hours, Tris/HCl buffer, up to drug/DNA ratio 2.0
Experimental: For these experiments, cisplatin, all uncoordinated ligands, and the starting dimeric organometallic ruthenium (II) complex [Ru(η^6-p-cymene)Cl]2 were also measured as controls. Plasmid pBR322 presents two main forms, OC (open circular or relaxed) and CCC (covalently closed or supercoiled), which display different electrophoretic mobility. Changes in the electrophoretic mobility of any of the forms upon incubation of the plasmid with a compound are usually interpreted as evidence of interaction. Generally, a drug that induces unwinding of the CCC form will produce a retardation of the electrophoretic mobility, while coiling of the OC form will result in increased mobility.
10 μL aliquots of pBR322 plasmid DNA (20 μg/mL) in buffer (5 mM Tris/HCl, 50 mM NaClO4, pH=7.39) were incubated with different concentrations of the compounds (1-4, 8, 9, [(η^6-p-cymene)Ru(μ-Cl)Cl]2) (in the range 0.25 and 4.0 metal complex:DNAbp) at 37° C. for 20 h in the dark. Samples of free DNA and cisplatin-DNA were prepared as controls. After the incubation period, the samples were loaded onto the 1% agarose gel. The samples were separated by electrophoresis for 1.5 h at 80 V in Tris-acetate/EDTA buffer (TAE). Afterwards, the gel was stained for 30 min. with a solution of GelRed Nucleic Acid stain.

lung A549 = test: MTT toxicity assay, A549; assay type: cell-based, human; conditions: 24 h incubation, mean ± SD (n = 4)
Experimental: (§3) Compounds were added at different concentrations in triplicate.

leukemia Jurkat-T = test: MTT toxicity assay, Jurkat; assay type: cell-based, human; conditions: 24 h incubation, mean ± SD (n = 4)
Experimental: as §3

pancreas MiaPaca2 = test: MTT toxicity assay, MiaPaca2; assay type: cell-based, human; conditions: 24 h incubation, mean ± SD (n = 4)
Experimental: as §3

[2] = system: human renal proximal tubular cells (RPTC); test: XTT assay for RPTC cells; assay type: cell-based; conditions: XTT assay 24 hours
Experimental: Renal proximal tubular cells in primary culture have been described as an in vitro model to study nephrotoxicity.
The human Renal Proximal Tubule Cells (RPTC) a non-tumoral human kidney epithelial cell line (obtained from Lifeline Cell Technology, Frederick, Md., USA) were cultured in Lifeline's RenaLife Medium containing RenaLife LifeFactors with 2.4 mM L-Glutamine, 5 Î¼ g/mL rh insulin, 1.0 Î¼M epinephrine, 10 nM triiodothyronine, 0.1 Î¼ g/mL hydrocortisone hemisuccinate, 10 ng/mL rh EGF, 0.5% FBS and 5 Î¼ g/m transferrin PS (all from Lifeline Cell Technology), at 37° C. in a humidified atmosphere of 95% of air and 5% CO2 (University of Hawaii Cancer Center, Honolulu, Hi., USA). For evaluation of cell viability, cells were seeded at a concentration of 5×10^3 cells/well in 90 μl Lifeline's RenaLife complete medium into tissue culture grade 96-well flat bottom microplates (Thermo Scientific BioLite Microwell Plate, Fisher Scientific, Waltham, Mass., USA) and grown for 24 h. […] The optical density of each well (96-well plates) was quantified using EnVision Multilabel Plate Readers (Perkin Elmer, Waltham Mass., USA) at 450 nm wavelength to measure absorbance. The percentage of surviving cells was calculated from the ratio of absorbance of treated to untreated cells. […]

[3] = system: non-tumorigenic human embryonic kidney cells HEK293T; test: MTT toxicity assay, HEK-293T; assay type: cell-based; conditions: 24 h incubation, mean ± SD (n = 4)
Experimental: In order to assess the compounds' selectivity for cancerous cells with respect to normal cell lines, the compounds were also screened for their antiproliferative effects on the non-tumorigenic human embryonic kidney cells HEK293T.
as §1, §2

prostate DU-145 = test: MTT toxicity assay, DU-145; assay type: cell-based, human; conditions: 24 h incubation, mean ± SD (n = 4)
Experimental: as §3

Solubility = conditions: 1:99 DMSO:H2O
[4] = biological target: Human serum albumin (HSA) (Homo sapiens, UniProt P02768); test: Interaction with HSA by fluorescence spectroscopy (Stern-Volmer); assay type: binding; conditions: HSA 10 μM, phosphate buffer pH 7.4
Experimental: The fluorescence data was analyzed by the Stern-Volmer equation.
A solution of each compound (8 mM) in DMSO was prepared and ten aliquots of 2.5 μL were added successively to a solution of HSA (10 μM) in phosphate buffer (pH=7.4) to achieve final metal complex concentrations in the range 10-100 μM. The excitation wavelength was set to 295 nm, and the emission spectra of HSA samples were recorded at room temperature in the range of 300 to 450 nm. The fluorescence intensities of all the metal compounds, the buffer and the DMSO are negligible under these conditions. The fluorescence was measured 240 s. after each addition of compound solution. The data were analyzed using the classical Stern-Volmer equation F0/F=1+KSV[Q].

[5] = Stability in solution by 31P and 1H NMR; air stability; assay type: physicochemical
Experimental: The stability of the water-soluble complexes was studied by ^31P {^1H} and ^1H NMR spectroscopy in D2O. […] However, as explained elsewhere in this specification, the biological activity of compound 2 is very fast (in 8 hours compound 2 induces 80% of apoptosis on Jurkat cells). Thus, without wishing to be bound to any particular theory, the observed biological activity is believed to mainly come from coordination compound 2 or its hydrolysis product.

human cell lines = test: MTT toxicity assay, all tested human cell lines; assay type: cell-based; conditions: 24 h incubation
Experimental: as §3

Jurkat cells = test: Cell death analysis (PS exposure, mitochondrial membrane potential, Hoechst) in Jurkat cells
Experimental: The mechanism of cell death induced by compound 2 and compound 3 was explored in Jurkat cells. Nuclei morphology after twenty-four hour incubation with 1 μM solution of compound 2 or compound 3 was analyzed by Hoechst staining. […] Other apoptotic parameters such as phosphatidylserine exposure and mitochondrial membrane potential dissipation were analyzed using fluorescent probes.
To determine whether caspase inhibition prevented or just delayed cell death, experiments were performed in which cells were treated with compound 2 or compound 3 for twenty-four hours in the presence of z-VAD-fmk and then washed and further cultured in fresh medium for twenty-four hours (FIG. 6). PS exposure was analyzed after the first twenty-four hours in the presence of compound+z-VAD-fmk and twenty-four hours after washing.
Apoptosis/necrosis hallmarks of cells treated with compounds 2 and 3 were analyzed by measuring mitochondrial membrane potential and/or exposure of phosphatidylserine. In some experiments the general caspase inhibitor z-VAD-fmk was added at 50 μM 1 h before compounds. For mitochondrial membrane potential determination cells (2.5×10^5 in 200 μl) after treatment with compounds were incubated at 37° C. for 15 min. in ABB (140 mM NaCl, 2.5 mM CaCl2, 10 mM Hepes/NaOH, pH 7.4) containing 60 mM tetramethylrhodamine ethyl ester (TMRE, Molecular Probes). Phosphatidylserine exposure was quantified by labeling cells with AnnexinV-PE or AnnexinV-DY636 (Invitrogen) after treatment with compounds. AnnexinV was added at a concentration of 0.5 μg/mL and cells were incubated at room temperature for 15 min. In all cases, cells were diluted to 1 ml with ABB to be analyzed by flow cytometry (FACScan, BD Bioscience, Spain).

CT DNA = test: DNA precipitation and quantification of ruthenium by ICP-MS; assay type: binding, calf; set-up: unit not given here
Experimental: In this experiment, 500 μM concentration DNA solutions were treated with 2 equiv of ruthenium compound 2 and compound 3 for twenty hours at 37° C. to promote DNA precipitation. The samples were then centrifuged, and the resulting pellets were analyzed for DNA and metal concentration.
Stock solutions of compounds 2 and 3 (4 mM in water) and CT DNA (11.56 mM in 5 mM Tris/HCl, 50 mM NaClO4, pH=7.39) were freshly prepared prior to use. 216 μl of DNA stock solution were diluted in 3.53 mL of buffer and 1.25 mL of compound stock solution were then added to achieve 5 mL final volume at concentrations of 500 μM in DNA and 1 mM in metal compound. Each sample was incubated at 37° C. for a period of 20 h, then cooled down to room temperature and centrifuged at 3000 rpm for 15 min. and at 4000 rpm for extra 40 min. The supernatant was separated and analyzed for CT DNA concentration by CD spectroscopy. The resulting pellet was washed twice with ice-cold ethanol (1 mL), centrifuged at RT for 1 min. at 4000 rpm, dried under high vacuum and analyzed for Ru content by ICP-MS. The total amount of DNA in each sample was 0.92 mg. Every experiment was run in duplicate.

[6] = Jurkat cells, general caspase inhibitor z-VAD-fmk

Sequence of Human serum albumin (HSA) (P02768 25-609): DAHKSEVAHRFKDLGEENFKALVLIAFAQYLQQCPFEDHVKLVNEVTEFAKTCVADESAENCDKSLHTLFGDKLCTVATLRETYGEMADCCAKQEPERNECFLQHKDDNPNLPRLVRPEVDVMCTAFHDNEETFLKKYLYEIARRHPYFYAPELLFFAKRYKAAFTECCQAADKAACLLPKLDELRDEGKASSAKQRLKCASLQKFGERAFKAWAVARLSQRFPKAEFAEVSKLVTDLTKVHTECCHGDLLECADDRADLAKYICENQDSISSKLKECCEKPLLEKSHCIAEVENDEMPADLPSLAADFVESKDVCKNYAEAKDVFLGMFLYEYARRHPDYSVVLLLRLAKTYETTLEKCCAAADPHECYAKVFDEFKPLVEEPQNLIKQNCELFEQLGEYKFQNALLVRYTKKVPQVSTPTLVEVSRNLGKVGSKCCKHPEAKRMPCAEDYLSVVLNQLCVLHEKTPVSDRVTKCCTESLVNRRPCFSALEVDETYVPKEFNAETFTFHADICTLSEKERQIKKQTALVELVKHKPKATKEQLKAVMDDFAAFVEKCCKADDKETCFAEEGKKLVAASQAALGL

Compound: N.N.[Cl][Pt][Cl] [Cisplatin, reference compound]
- IC50 [1]: 131 ± 18 µM
- electrophoretic mobility of plasmid pBR322 DNA (plasmid pBR322 DNA): able to both increase and decrease the mobility of the OC and the CCC forms
- IC50 (lung A549): 114 ± 9.1 µM
- IC50 (leukemia Jurkat-T): 10.8 ± 1.2 µM
- IC50 (pancreas MiaPaca2): 76.5 ± 7.4 µM
- IC50 [2]: 46.4 ± 2.46 µM
- IC50 [3]: 69 ± 6.7 µM
- IC50 (prostate DU-145): 112 ± 33 µM

Compound: Cc1ccc(C(C)C)cc1.O=C(N=P12CN3CN(CN(C3)C1)C2)c1cccc[c]1[Ru][Cl] [Compound 9, [(η^6-p-cymene)Ru{(PTA═N—CO-2-C6H4)-κ-C,N}Cl]]
- IC50 [1]: 75.4 ± 9.8 µM
- IC50 (lung A549): > 125 µM
- IC50 (leukemia Jurkat-T): 17.7 ± 7.5 µM
- IC50 (pancreas MiaPaca2): 54.5 ± 16 µM
- IC50 [3]: 142 ± 13.1 µM
- IC50 (prostate DU-145): 126 ± 28 µM
- solubility in DMSO:H2O mixtures (Solubility): soluble in mixtures 1:99 DMSO:H2O in micromolar concentrations

Compound: [(η^6-p-cymene)Ru((Ph3P═N—CO-2-C6H4)-κ-C,N)Cl] [Compound 8]
- Stern-Volmer constant [4]: 18100 M⁻¹
- IC50 [1]: 7.1 ± 0.11 µM
- stability in d^6-DMSO solution [5]: stable for weeks
- IC50 (lung A549): 29.9 ± 5.8 µM
- IC50 (leukemia Jurkat-T): 2.39 ± 0.27 µM
- IC50 (pancreas MiaPaca2): 8.2 ± 0.98 µM
- IC50 [3]: 4.1 ± 0.06 µM
- IC50 (prostate DU-145): 14.2 ± 4.2 µM
- solubility in DMSO:H2O mixtures (Solubility): soluble in mixtures 1:99 DMSO:H2O in micromolar concentrations

Compound: [(η^6-p-cymene)Ru([{Cp—P(Ph2)═N—CH2-2-NC5H4}Fe(Cp)]-κ-N,N)Cl]Cl [Compound 4]
- IC50 [1]: > 125 µM
- stability in D2O (NMR spectra) [5]: does not change for over three days
- stability in d^6-DMSO solution [5]: stable for weeks
- electrophoretic mobility of plasmid pBR322 DNA (plasmid pBR322 DNA): no mobility retardation is observed
- IC50 (lung A549): > 125 µM
- IC50 (leukemia Jurkat-T): 9.3 ± 0.07 µM
- IC50 (pancreas MiaPaca2): > 125 µM
- IC50 [3]: 114 ± 14.8 µM
- IC50 (prostate DU-145): 148 ± 33 µM

Compound: [(η^6-p-cymene)Ru(μ-Cl)Cl]2
- IC50 (human cell lines): > 125 µM

Compound: [(η^6-p-cymene)Ru{(Ph3P═N-8-C9H6N)-κ-N,N}Cl]Cl [Compound 3]
- IC50 [1]: 16.2 ± 0.9 µM
- stability in D2O (NMR spectra) [5]: does not change significantly over time
- stability in d^6-DMSO solution [5]: stable for weeks
- AnnexinV+ cells, compound + z-VAD-fmk (Jurkat cells; 24 h with compound + z-VAD-fmk, then 24 h in fresh medium after washing): 32%
- PS exposure with z-VAD-fmk (Jurkat cells; [6]): completely abrogated
- Δψm loss with z-VAD-fmk (Jurkat cells; [6]): 20%
- Δψm loss (Jurkat cells; Jurkat cells, without z-VAD-fmk): 40%
- Nuclei morphology (Hoechst staining) (Jurkat cells; Jurkat, 24 h incubation with 1 μM solution): chromatin condensation and fragmentation
- AnnexinV+ cells, compound alone for twenty-four hours (Jurkat cells; compound alone, 24 h): 28%
- electrophoretic mobility of plasmid pBR322 DNA (plasmid pBR322 DNA): no mobility retardation is observed
- IC50 (lung A549): 43.3 ± 8 µM
- IC50 (leukemia Jurkat-T): 0.9 ± 0.32 µM
- IC50 (pancreas MiaPaca2): 7 ± 0.4 µM
- IC50 [3]: 2.2 ± 1.1 µM
- ruthenium content in DNA precipitate (CT DNA): 2.43±0.18
- IC50 (prostate DU-145): 6.6 ± 0.85 µM

Compound: [(η^6-p-cymene)Ru{(Ph3P═N—CO-2-N—C5H4)-κ-N,O}Cl](PF6) [Compound 1]
- IC50 [1]: 4.91 ± 2.7 µM
- stability in d^6-DMSO solution [5]: stable for weeks
- electrophoretic mobility of plasmid pBR322 DNA (plasmid pBR322 DNA): induce retardation of the mobility of the CCC form
- IC50 (lung A549): 9.9 ± 1.9 µM
- IC50 (leukemia Jurkat-T): 1.1 ± 0.14 µM
- IC50 (pancreas MiaPaca2): 2.4 ± 0.18 µM
- IC50 [3]: 2.8 ± 0.2 µM
- IC50 (prostate DU-145): 1.89 ± 0.64 µM
